Key:
NagZ = target: T1, NagZ (Caulobacter vibrioides, UniProt A0A0H3C9G9); assay: preincubation with NagZ, then coupled AmiR step and LC-MS; format: biochemical; details: 10 µM NagZ, 50 mM HEPES, 200 mM NaCl, 10% glycerol, pH 7.2, 37 °C, 16 hr
T1 construct: gene CCNA_02085; His6-SUMO fusion expressed in E. coli Rosetta(DE3)pLysS, tag cut by SUMO protease

AmiR = target: T2, AmiR (Caulobacter vibrioides, UniProt A0A0H3CAA9); assay: HPLC of reaction products; format: biochemical; details: 20 mM HEPES-NaOH, 50 mM NaCl, 1 mM MgCl2, pH 7.5, 37 °C, 16 hr; mixture of anhydro-muropeptides from Slt70-digested sacculi
T2 construct: gene CCNA_02650; His6-SUMO fusion expressed in E. coli Rosetta(DE3)pLysS, tag cut by SUMO protease

CrbA = target: T3, CrbA (Caulobacter vibrioides, UniProt A0A0H3C8K5); assay: competition with bocillin-FL labelling, SDS-PAGE fluorescence; format: cell-based; details: covalent; crude membranes in PBS, 1-100 µg/mL ampicillin for 2 hr at room temperature, active-site serine
T3 construct: native protein in crude membrane fraction, gel band

PBP3 = target: T4, PBP3 (Caulobacter vibrioides, UniProt B8H0A0); assay: as above; format: cell-based; details: covalent, crude membranes in PBS
T4 construct: gene ftsI; native protein in crude membrane fraction, gel band
T4 sequence (B8H0A0 1-589): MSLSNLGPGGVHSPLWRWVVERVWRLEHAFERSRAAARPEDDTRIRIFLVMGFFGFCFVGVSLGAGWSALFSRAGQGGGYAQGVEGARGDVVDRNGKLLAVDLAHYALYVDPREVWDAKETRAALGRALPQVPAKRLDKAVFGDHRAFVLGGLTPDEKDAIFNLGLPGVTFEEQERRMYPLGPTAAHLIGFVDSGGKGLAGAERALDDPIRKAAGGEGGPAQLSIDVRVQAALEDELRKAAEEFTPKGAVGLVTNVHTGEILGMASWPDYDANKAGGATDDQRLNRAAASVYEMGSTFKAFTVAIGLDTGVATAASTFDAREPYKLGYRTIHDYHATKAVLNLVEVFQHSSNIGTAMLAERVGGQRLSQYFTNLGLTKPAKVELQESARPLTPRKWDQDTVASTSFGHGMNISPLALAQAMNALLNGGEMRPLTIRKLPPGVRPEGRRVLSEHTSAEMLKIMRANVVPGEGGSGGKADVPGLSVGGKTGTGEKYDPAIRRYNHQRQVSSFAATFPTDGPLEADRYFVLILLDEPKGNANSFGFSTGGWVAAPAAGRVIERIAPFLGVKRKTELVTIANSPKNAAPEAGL

T3 sequence (A0A0H3C8K5 entry or part of it): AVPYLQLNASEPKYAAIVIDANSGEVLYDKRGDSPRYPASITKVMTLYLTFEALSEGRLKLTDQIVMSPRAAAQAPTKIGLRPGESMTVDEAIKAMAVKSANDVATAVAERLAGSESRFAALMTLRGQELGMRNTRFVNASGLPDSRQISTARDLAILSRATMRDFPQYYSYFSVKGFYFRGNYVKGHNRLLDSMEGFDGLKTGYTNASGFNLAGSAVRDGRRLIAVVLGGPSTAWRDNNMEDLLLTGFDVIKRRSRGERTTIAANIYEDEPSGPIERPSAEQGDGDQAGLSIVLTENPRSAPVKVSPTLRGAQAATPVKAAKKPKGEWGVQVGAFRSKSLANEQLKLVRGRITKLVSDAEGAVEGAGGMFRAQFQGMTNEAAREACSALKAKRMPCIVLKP
T1 sequence (A0A0H3C9G9 entry or part of it): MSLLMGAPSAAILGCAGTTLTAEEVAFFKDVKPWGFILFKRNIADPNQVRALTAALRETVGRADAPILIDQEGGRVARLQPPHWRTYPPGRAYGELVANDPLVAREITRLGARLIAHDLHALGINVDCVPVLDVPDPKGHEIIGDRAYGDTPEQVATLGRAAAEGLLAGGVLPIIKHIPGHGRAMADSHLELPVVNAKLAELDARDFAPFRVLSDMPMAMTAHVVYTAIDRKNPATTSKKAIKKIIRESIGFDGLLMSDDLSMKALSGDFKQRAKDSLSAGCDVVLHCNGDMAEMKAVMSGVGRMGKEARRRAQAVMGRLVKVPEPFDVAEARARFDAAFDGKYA
T2 sequence (A0A0H3CAA9 entry or part of it): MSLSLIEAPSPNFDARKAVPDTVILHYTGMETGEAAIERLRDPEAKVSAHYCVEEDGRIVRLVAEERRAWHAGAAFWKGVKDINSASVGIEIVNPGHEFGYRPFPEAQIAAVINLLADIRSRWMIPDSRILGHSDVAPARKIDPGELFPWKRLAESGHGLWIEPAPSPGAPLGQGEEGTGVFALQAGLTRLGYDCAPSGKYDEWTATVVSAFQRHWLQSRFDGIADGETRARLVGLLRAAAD

CC(=O)N[C@H]1[C@H](O[C@H]2[C@H](O[C@H](C)C(=O)N[C@@H](C)C(=O)N[C@H](CCC(=O)N[C@@H](CCC[C@@H](N)C(=O)O)C(=O)N[C@H](C)C(=O)O)C(=O)O)[C@@H](NC(C)=O)[C@@H]3OC[C@H]2O3)O[C@H](CO)[C@@H](O)[C@@H]1O [GlcNAc–anhMurNAc-tetrapeptide]
preincubation with NagZ, then coupled AmiR step and LC-MS (NagZ): substrate anhMurNAc-tetrapeptide, generated by preincubating purified GlcNAc–anhMurNAc-tetrapeptide with NagZ | HPLC of reaction products (AmiR): AmiR efficiently hydrolyzed tetrapeptide-containing fragments

CC1(C)S[C@@H]2[C@H](NC(=O)[C@H](N)c3ccccc3)C(=O)N2[C@H]1C(=O)O [ampicillin]
competition with bocillin-FL labelling, SDS-PAGE fluorescence (CrbA): all but one of them (PbpX) remained unlabeled | competition with bocillin-FL labelling, SDS-PAGE fluorescence (PBP3; 1-100 µg/mL ampicillin for 2 hr at room temperature, active-site serine): Among the ampicillin targets identified were the essential, cell division-specific monofunctional transpeptidase PBP3

CC1=C(C(=O)O)N2C(=O)[C@@H](NC(=O)[C@H](N)c3ccccc3)[C@H]2SC1 [cephalexin]
competition with bocillin-FL labelling, SDS-PAGE fluorescence (PBP3; 5 µg/mL cefalexin for 2 hr at room temperature): The labeling of PBP3 and some bifunctional PBPs was also abolished by preincubation with cephalexin
